Measured values published in ChEMBL document CHEMBL3046005, “New Insecticidal 4-Acetoxy-2-alkenylquinolines” (1996).

Experiments:
Type in all cases: functional
[1] = test system: Laodelphax striatellus; assay: Insecticidal activity against Laodelphax striatella (small brown planthopper) larvae assessed as mortality at 250 ppm by leaf spray method
[2] = test system: Bombyx mori; assay: Insecticidal activity against Bombyx mori larvae assessed as mortality at 0.63 ug administered topically measured after 48 hr
[3] = test system: Bombyx mori; assay: Insecticidal activity against Bombyx mori larvae assessed as mortality at 2.5 ug administered topically measured after 48 hr
[4] = test system: Laodelphax striatellus; assay: Insecticidal activity against Laodelphax striatella (small brown planthopper) larvae assessed as mortality at 500 ppm by leaf spray method
[5] = test system: Tetranychus urticae; assay: Insecticidal activity against Tetranychus urticae (two-spotted spider mite) eggs assessed as mortality at 1000 ppm by leaf spray method
[6] = test system: Plutella xylostella; assay: Insecticidal activity against Plutella xylostella (diamondback moth) larvae assessed as mortality at 1000 ppm by leaf spray method
[7] = test system: Tetranychus urticae; assay: Insecticidal activity against Tetranychus urticae (two-spotted spider mite) eggs assessed as mortality at 500 ppm by leaf spray method
[8] = test system: Laodelphax striatellus; assay: Insecticidal activity against Laodelphax striatella (small brown planthopper) larvae assessed as mortality at 1000 ppm by leaf spray method
[9] = test system: Tetranychus urticae; assay: Insecticidal activity against Tetranychus urticae (two-spotted spider mite) eggs assessed as mortality at 250 ppm by leaf spray method
[10] = test system: Plutella xylostella; assay: Insecticidal activity against Plutella xylostella (diamondback moth) larvae assessed as mortality at 500 ppm by leaf spray method
[11] = test system: Bombyx mori; assay: Insecticidal activity against Bombyx mori larvae assessed as mortality at 10 ug administered topically measured after 48 hr
[12] = test system: Plutella xylostella; assay: Insecticidal activity against Plutella xylostella (diamondback moth) larvae assessed as mortality at 250 ppm by leaf spray method
[13] = test system: Bombyx mori; assay: Insecticidal activity against Bombyx mori larvae assessed as mortality at 40 ug administered topically measured after 48 hr

Row | Structure (SMILES) | Activity [2] [%] | Activity [3] [%] | Activity [11] [%] | Activity [13] [%] | other results
1 | CCCCCCC/C=C\c1nc2ccccc2c(OC(C)=O)c1C | 65 | 100 | 100 | 100 | Activity [1]: 76%; Activity [4]: 94%; Activity [5]: 100%; Activity [6]: 100%; Activity [7]: 100%; Activity [8]: 100%; Activity [9]: 68.2%; Activity [10]: 100%; Activity [12]: 100%
2 | CCCCC/C=C/C=C/c1nc2ccccc2c(O)c1C | – | 0 | 0 | 0 | –
3 | CCCCCCC/C=C/c1nc2ccccc2c(O)c1C | – | 0 | 0 | 0 | –
4 | CCCCCC/C=C/Cc1nc2ccccc2c(OC(C)=O)c1C | 15 | 100 | 100 | 100 | –
5 | CCCCCC/C=C/C(O)c1nc2ccccc2c(OC(C)=O)c1C (configuration not stated) | – | 0 | 10 | 85 | –
6 | CCCCC/C=C/C=C/c1nc2ccccc2c(OC(C)=O)c1C | – | 0 | 0 | 100 | –
7 | CCCCCCC/C=C/c1nc2ccccc2c(OC(C)=O)c1C | 0 | 100 | 100 | 100 | –
8 | CCCCCC/C=C/C(O)c1nc2ccccc2c(O)c1C (configuration not stated) | – | 0 | 0 | 5 | –
9 | CCCCCCC/C=C\c1nc2ccccc2c(O)c1C | – | 0 | 20 | 70 | –
10 | CCCCCC/C=C/Cc1[nH]c2ccccc2c(=O)c1C | – | 0 | 0 | 20 | –
